{
  "source": "patent US10612068B2",
  "about": "“Culture medium containing a spore germination inhibiting or delaying compound” (BIOMERIEUX, priority 2008, dated 2020)",
  "key": {"[1]": {"tested_on": "Bacillus licheniformis spores", "settings": "L-alanine dehydrogenase dependent first step; cited from earlier work"}, "[2]": {"tested_on": "Bacillus (Bacillus licheniformis, Bacillus thuringiensis/cereus) present in sporulated form", "test": "Milk powder samples not contaminated with Staphylococcus aureus incubated in culture medium with or without D-alanine; fluorescence reading and MPN count of nonspecific growth", "format": "cell-based", "description": "The example described hereinafter illustrates the inhibiting effect of D-alanine on the […] of microorganisms of Bacillus type (such as Bacillus licheniformis, Bacillus thuringiensis/cereus).\nTo do this, 59 samples of milk powder products liable to contain Bacillus microorganisms, also not contaminated with Staphylococcus aureus, were tested.\nIn order to study the inhibiting effect of D-alanine, two culture media were tested:\nMedium 1: culture medium without D-alanine,\nMedium 2: culture medium in the presence of D-alanine at a final concentration in the medium of between 0.05 and 0.1 mol/l (final concentration in the medium).\nThe composition of said culture medium is the following (in g/l, final concentration in the medium with or without D-alanine):\nThe samples were prepared according to ISO standard 8261: 2001 (concerning milk and milk products and relating to the “general guidelines for the preparation of test samples, of the stock suspension and of the decimal dilutions for the purpose of microbiological examination”) according to the following steps: • a) 10 grams of the sample are weighed out and placed in a Stomacher® bag, • b) 90 ml of tryptone salt diluent preheated to 45° C. are added so as to obtain an initial 1/10 dilution of the sample, • c) grinding is carried out using a Stomacher® machine for one minute, • d) the Stomacher® bag is placed in a water bath and stirred for 5 minutes at 45° C., • e) 1 ml of the sample (diluted to 1/10) is taken and placed in 3 ml of culture medium so as to obtain a 1/40 dilution, • f) incubation is carried out for a period of between 24 and 27 hours at a temperature of 37° C., • g) the culture medium is read by fluorescence and the level of contamination of the sample with microorganisms is determined by means of the most probable number technique.\nThe reading consists of a measurement of the fluorescence of the culture medium obtained after incubation. A large variation in the fluorescence values attests to acidification of the medium, said acidification itself resulting from the growth of one or more microorganisms.\nThe CV fluorescence values were calculated on the basis of the samples tested (not contaminated with Staphylococcus aureus).\nThe higher the CV, the greater the acidification of the medium, thereby attesting to growth of the microorganisms present in the culture medium. Conversely, the lower the CV, the less the acidification, thereby reflecting less growth of the microorganisms. The specificity of the medium is therefore better and the risk of false positives is therefore less (false-positive result linked to the acidification of the medium by a bacterium of a microorganism other than Staphylococcus aureus). […]"}},
  "data": [
    {"smiles": "CCCCCCCCO", "note": "[octanol]", "values": [
      {"measurement": "inhibition of the first step of spore germination", "setting": "[1]", "result": "inhibited"}
    ]},
    {"smiles": "C[C@@H](N)C(=O)O", "note": "[D-alanine]", "values": [
      {"measurement": "inhibition of the first step of spore germination", "setting": "[1]", "result": "inhibited"},
      {"measurement": "% of samples with MPN count <10 (good specificity)", "setting": "[2]; 59 milk powder samples, D-alanine 0.05-0.1 mol/l, 24-27 hours at 37° C.", "result": 89.83, "unit": "%"},
      {"measurement": "rate of false-positive results", "setting": "[2]; 59 milk powder samples, false positives related to growth of Bacillus", "result": 10.17, "unit": "%"},
      {"measurement": "highest false-positive count result", "setting": "[2]; 59 milk powder samples, with the use of D-alanine", "result": "≤ 50", "unit": "CFU/gram"},
      {"measurement": "effect on CV values obtained after incubation of the medium", "setting": "[2]; D-alanine in the culture medium vs. medium without", "result": "greatly reduce the CV values"}
    ]},
    {"smiles": "CCOC(=O)C(C)=O", "note": "[ethyl pyruvate]", "values": [
      {"measurement": "inhibition of the first step of spore germination", "setting": "[1]", "result": "inhibited"}
    ]}
  ]
}
